This is an account of results in patent publication US8957062B2, “Substituted cyclopropyl compounds, compositions containing such compounds and methods of treatment” (Merck Sharp & Dohme Corp., priority 2011, dated 2015).

Read-outs that look alike come from different tables or passages of the source.

The assay concerns the target T1, human GPR119 (Homo sapiens, UniProt Q8TDV5).
T1 sequence (Q8TDV5 1-308 limits assumed): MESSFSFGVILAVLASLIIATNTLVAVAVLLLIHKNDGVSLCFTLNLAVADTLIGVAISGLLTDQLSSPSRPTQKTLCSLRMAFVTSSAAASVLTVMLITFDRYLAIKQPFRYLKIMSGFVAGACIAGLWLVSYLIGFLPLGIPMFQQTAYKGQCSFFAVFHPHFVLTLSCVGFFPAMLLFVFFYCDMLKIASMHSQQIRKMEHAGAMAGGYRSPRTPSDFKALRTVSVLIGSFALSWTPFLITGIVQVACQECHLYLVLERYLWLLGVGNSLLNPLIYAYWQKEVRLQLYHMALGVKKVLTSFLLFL
In words: Measurement of GPR119 signaling (cAMP assay) in cells stably transfected with human GPR119. Type of assay: cell-based. As for the experimental part: Measurement of GPR119 Signaling (Cyclic AMP (cAMP) Assay)
The adenylate cyclase assay was constructed following the LANCE™ cAMP Kit (Perkin Elmer, AD0264) instructions.
The reaction was stopped by incubating with the supplied detection buffer containing the europium chelate of the Eu-SA/Biotin-cAMP tracer for 3 hours. The assay was performed in duplicate in a 384 well plate for duplicate plates and fluorescence was measured at 665 nm. Basal activity was determined using a DMSO control and maximum response was defined as cAMP stimulation produced by an internal agonist control. Standard cAMP concentrations were assayed concurrently for conversion of fluorescence signal to cAMP level. The data was analyzed using 4-parameter curve fit in Microsoft Excel.
Measurement of GPR119 Signaling (cAMP Homogenous Time Resolved Fluorescence (HTRF) Assay)
Chinese hamster ovary (CHO) cell lines stably transfected with the permissive guanine nucleotide binding protein alpha 15 (Gα15) and murine GPR119 were maintained in DMEM media containing FBS, penicillin-streptomycin, puromycin, and G418 (geneticin). […] Agonist activation of the GPR119 receptor was measured in receptor transfected cells described above, treated with compounds of this invention, using a commercial homogenous time resolved fluorescence (HTRF) kit for measurement of cAMP (CisBio, Bedford, Mass.). The assay was performed in 96-well half-volume plates (murine) or 384-well plates (human) following the manufacturers instructions. Briefly, suspended cells were incubated with a dose titration of test compound at RT for 60 min, lysed, and incubated with HTRF reagents for an additional 60 min. The plate was read using an Envision multilabel reader (Perkin Elmer) adjusted to read time resolved fluorescence and the cAMP concentrations were extrapolated from a cAMP calibration curve. […] The concentration of test compound required to stimulate a half-maximal response (EC50), and efficacy as compared to an internal agonist control, was determined from a sigmoidal 4-parameter curve fit of the resulting plot of normalized activity versus compound concentration.

Setting [1] is: stated in the example text, cAMP stimulation, human GPR119, read-out: GPR119 Human EC50.
[2] abbreviates: table column, cAMP stimulation, human GPR119, read-out: GPR119 Human EC50.
Where [3] appears, read: cAMP stimulation, read-out: GPR119 HumC EC50.

Regarding `CS(=O)(=O)c1ccc(OCC[C@@H]2C[C@@H]2C2CCN(C(=O)CC3CCCCC3)CC2)nc1` [Example 85, 2-(2-{(1S,2R)-2-[1-(cyclohexylacetyl)piperidin-4-yl]cyclopropyl}ethoxy)-5-(methylsulfonyl)pyridine], the EC50 (usually the concentration that produces a half-maximal response) under setting [1] turned out to be 11.8 nM.
As to `CC(C)CC(=O)N1CCC([C@H]2C[C@H]2CCOc2ccc(S(C)(=O)=O)cn2)CC1` [Example 86], under setting [2], the EC50 was found to be 29 nM.
Regarding `CS(=O)(=O)c1ccc(OCC[C@@H]2C[C@@H]2C2CCN(C(=O)CC3CCC3)CC2)nc1` [Example 87], the EC50 under setting [2] was determined as 13 nM.
As for `CS(=O)(=O)c1ccc(OCC[C@@H]2C[C@@H]2C2CCN(C(=O)CC3CCCC3)CC2)nc1` [Example 88], the EC50 under setting [2] worked out at 4.6 nM.
Same read-out and setting: to `CC(C)(C)CC(=O)N1CCC([C@H]2C[C@H]2CCOc2ccc(S(C)(=O)=O)cn2)CC1` [Example 89] belongs 16 nM; to `CS(=O)(=O)c1ccc(OCC[C@@H]2C[C@@H]2C2CCN(C(=O)CC3CC4C=CC3C4)CC2)nc1` (some centres unmarked) [Example 90], 16 nM; to `CS(=O)(=O)c1ccc(OCC[C@@H]2C[C@@H]2C2CCN(C(=O)Cc3cccs3)CC2)nc1` [Example 91], 36 nM.
`CS(=O)(=O)c1ccc(OCC[C@@H]2C[C@@H]2C2CCN(C(=O)CC3CCC3)CC2)cc1F` [Example 92]: the EC50 under setting [2] was 10 nM.
On to `CS(=O)(=O)c1ccc(OCC[C@@H]2C[C@@H]2C2CCN(C(=O)CC3CCCC3)CC2)cc1F` [Example 93], for which the EC50 under setting [2] came to 4.6 nM.
The same measure, in the same setting: the value for `CC(C)CC(=O)N1CCC([C@H]2C[C@H]2CCOc2ccc(S(C)(=O)=O)c(F)c2)CC1` [Example 94] was 19 nM.
Turning to `CC(C)(C)CC(=O)N1CCC([C@H]2C[C@H]2CCOc2ccc(S(C)(=O)=O)c(F)c2)CC1` [Example 95], the EC50 under setting [2] was 5.4 nM.
As for `Cc1nc(C#N)cc(OCC[C@@H]2C[C@@H]2C2CCN(C(=O)CCC(F)(F)F)CC2)n1` [Example 96], the EC50 under setting [2] was determined as 43 nM.
`O=C(NC1CC1)c1c(F)cc(OCC[C@@H]2C[C@@H]2C2CCN(C(=O)CCC(F)(F)F)CC2)cc1F` [Example 97]: under setting [2], the EC50 was found to be 3.5 nM.
In the case of `CC(C)c1noc(N2CCC([C@H]3C[C@H]3CCOc3ccc(-n4cnnn4)cc3)CC2)n1` [Example 98, 5-(4-((1R,2S)-2-(2-(4-(1H-tetrazol-1-yl)phenoxy)ethyl)cyclopropyl)piperidin-1-yl)-3-isopropyl-1,2,4-oxadiazole], the EC50 under setting [1] was determined as 11.8 nM.
As to `CC(C)c1noc(N2CCC([C@H]3C[C@H]3CCOc3ccc(CC(=O)N4CCC4)cc3)CC2)n1` [Example 99, 4-[(1R,2S)-2-{2-[4-(2-azetidin-1-yl-2-oxoethyl)phenoxy]ethyl}cyclopropyl]-1-[3-(1-methylethyl)-1,2,4-oxadiazol-5-yl]piperidine], the EC50 under setting [1] stood at 1.8 nM.
Same read-out and setting: to `CC(C)c1noc(N2CCC([C@H]3C[C@H]3CCOc3ccc(CC(=O)N4CC(F)C4)c(F)c3)CC2)n1` [Example 100, 4-[(1R,2S)-2-(2-{3-fluoro-4-[2-(3-fluoroazetidin-1-yl)-2-oxoethyl]phenoxy}ethyl)cyclopropyl]-1-(3-isopropyl-1,2,4-oxadiazol-5-yl)piperidine] belongs 0.4 nM.
For `CC(C)c1noc(N2CCC([C@H]3C[C@H]3CCOc3ccc(CC(=O)N4CCC4)cc3F)CC2)n1` [Example 101, 4-((1R,2S)-2-{2-[4-(2-azetidin-1-yl-2-oxoethyl)-2-fluorophenoxy]ethyl}cyclopropyl)-1-(3-isopropyl-1,2,4-oxadiazol-5-yl)piperidine], the EC50 (stated in the example text without 'GPR119', read-out: Human EC50) was determined as 5.3 nM.
With `Cc1cc(OCC[C@@H]2C[C@@H]2C2CCN(c3nc(C(C)C)no3)CC2)ccc1CC(=O)N1CCC1` [Example 102], the EC50 under setting [3] worked out at 1.1 nM.
Same read-out and setting: to `CC(C)c1noc(N2CCC([C@H]3C[C@H]3CCOc3ccc(CC(=O)N4CCC4)c(Cl)c3)CC2)n1` [Example 103] belongs 0.58 nM; to `COCc1noc(N2CCC([C@H]3C[C@H]3CCOc3ccc(CC(=O)N4CCC4)c(Cl)c3)CC2)n1` [Example 104], 2.6 nM; to `CC(C)c1noc(N2CCC([C@H]3C[C@H]3CCOc3ccc(CC(=O)N4CCC4)c(C#N)c3)CC2)n1` [Example 105], 2 nM.
As to `Cc1cc(OCC[C@@H]2C[C@@H]2C2CCN(c3nc(C(C)C)no3)CC2)ccc1CC(=O)N(C)C` [Example 106], under setting [3], the EC50 worked out at 3.4 nM.
Turning to `COCc1noc(N2CCC([C@H]3C[C@H]3CCOc3ccc(CC(=O)N(C)C)c(C)c3)CC2)n1` [Example 107], the EC50 under setting [3] was found to be 5.2 nM.
As to `CC(C)c1noc(N2CCC([C@H]3C[C@H]3CCOc3cc(F)c(CC(=O)N4CC(O)C4)c(F)c3)CC2)n1` [Example 108, 1-[(2,6-difluoro-4-{2-[(1S,2R)-2-{1-[3-(1-methylethyl)-1,2,4-oxadiazol-5-yl]piperidin-4-yl}cyclopropyl]ethoxy}phenyl)acetyl]azetidin-3-ol], the EC50 under setting [1] was determined as 0.96 nM.
Regarding `CC(C)c1noc(N2CCC([C@H]3C[C@H]3CCOc3cc(F)c(CC(=O)N4CCC4)c(F)c3)CC2)n1` [Example 109], the EC50 under setting [3] stood at 0.24 nM.
Regarding `CC(C)c1noc(N2CCC([C@H]3C[C@H]3CCOc3cc(F)c(CC(=O)N4CC(F)C4)c(F)c3)CC2)n1` [Example 110], under setting [3], the EC50 was determined as 0.12 nM.
Take `CC(C)c1noc(N2CCC([C@H]3C[C@H]3CCOc3cc(F)c(CC(=O)N(C)C)c(F)c3)CC2)n1` [Example 111]: the EC50 under setting [3] worked out at 0.26 nM.
On to `CC(C)c1noc(N2CCC([C@H]3C[C@H]3CCOc3cc(F)c(CC(=O)N4CC(C)(O)C4)c(F)c3)CC2)n1` [Example 112], for which the EC50 under setting [3] turned out to be 2.4 nM.
Still for that read-out and setting: to `COC1CN(C(=O)Cc2c(F)cc(OCC[C@@H]3C[C@@H]3C3CCN(c4nc(C(C)C)no4)CC3)cc2F)C1` [Example 113] belongs 0.33 nM; to `CC(C)c1noc(N2CCC([C@H]3C[C@H]3CCOc3cc(F)c(CC(=O)N4CCOCC4)c(F)c3)CC2)n1` [Example 114], 0.19 nM.
Regarding `COCc1noc(N2CCC([C@H]3C[C@H]3CCOc3ccc(CC(=O)N4CCC4)c(F)c3)CC2)n1` [Example 115, 4-[(1R,2S)-2-{2-[4-(2-azetidin-1-yl-2-oxoethyl)-3-fluorophenoxy]ethyl}cyclopropyl]-1-[3-(methoxymethyl)-1,2,4-oxadiazol-5-yl]piperidine], the EC50 under setting [1] came out at 5.8 nM.
Regarding `COCc1noc(N2CCC([C@H]3C[C@H]3CCOc3cc(F)c(CC(=O)N4CC(F)C4)c(F)c3)CC2)n1` [Example 116, 4-[(1R,2S)-2-(2-{3,5-difluoro-4-[2-(3-fluoroazetidin-1-yl)-2-oxoethyl]phenoxy}ethyl)cyclopropyl]-1-[3-(methoxymethyl)-1,2,4-oxadiazol-5-yl]piperidine], under setting [1], the EC50 is 1.4 nM.
In the case of `CC(C)c1noc(N2CCC([C@H]3C[C@H]3CCOc3ccc(C(=O)C4CC4)c(F)c3)CC2)n1` [Example 117], the EC50 under setting [2] was determined as 0.6 nM.
For the compound `Cc1nc(C#N)cc(OCC[C@@H]2C[C@@H]2C2CCN(c3nc(C(C)C)no3)CC2)n1` [Example 118], the EC50 under setting [2] is 0.4 nM.
Take `CC(C)c1noc(N2CCC([C@H]3C[C@H]3CCOc3ccc(S(C)(=O)=O)c(F)c3)CC2)n1` [Example 119]: the EC50 under setting [2] worked out at 1.3 nM.
